We go through three molecules from patent US9006256B2, “Antitumor agent for thyroid cancer” (Eisai R&D Management Co., Ltd., priority 2006, dated 2015).

In general, pIC50 refers to the IC50 on a negative log10 scale, so that one unit is a factor of ten.

Assay [1] deals with human medullary thyroid carcinoma cell line (TT). The settings on record: Journal of the National Cancer Institute, 98, 326-334, 2006; cited from earlier work.
Assay [2] deals with NIH3T3 cells transformed with mutant RET. The conditions noted are these: Cancer Research, 15, 7284-7290, 2002; cited from earlier work.
Assay [3] has the same test system. The conditions noted are these: Cancer Research, 15, 7284-7290, 2002; cited from earlier work. This is another data set of the same source.
Assay [4] has as its system human medullary thyroid carcinoma cell line (TT). Put plainly: Antitumor effect in model for subcutaneous transplantation of human medullary thyroid carcinoma cell line (TT). The settings on record: oral, 10, 30 or 100 mg/kg, once a day, four weeks. The assay is classed as in vivo, nude mouse. The procedure:
(§1) Human medullary thyroid carcinoma cell line (TT, purchased from ATCC) was cultured at 37° C. in RPMI1640 (containing 15% FBS) in a 5% carbon dioxide incubator to about 80% confluence, and cells were harvested with trypsin-EDTA according to a general method. The cells were suspended in a phosphate buffer to prepare 1×10^8 cells/mL suspension. 0.1 mL each of the resulting cell suspension was subcutaneously transplanted to a nude mouse at the side of its body (purchased from Charles River).
The major and minor axes of tumors were measured with Digimatic caliper (Mitsutoyo), and tumor volumes were calculated according to the following formula. Tumor Volume (TV)=Major axis of tumor (mm)×(Minor axis of tumor)^2 (mm^2)/2

Another assay addresses T1, RET (Homo sapiens, UniProt P07949, C634W).
T1 construct: from tissue; host or cells: Subcutaneous TT tumour resected from nude mice (TT from ATCC, mice from Charles River)
Nature of the assay: RET phosphorylation in tumor tissue of model for subcutaneous transplantation of TT. The settings on record: oral, 10, 30 or 100 mg/kg; tumors resected 2, 8, 12 or 24 hours after administration. It counts as in vivo, nude mouse. Here is the method:
as §1
Tumors were resected 2, 8, 12 or 24 hours after administration, to which solubilizing buffer (50 mM Hepes (pH7.4), 150 mM NaCl, 10% (v/v) glycerol, 1% Triton X-100, 1.5 mM MgCl2, 1 mM EDTA (pH 8.0), 100 mM NaF, 1 mM PMSF, 10 μg/mL Aprotinin, 50 μg/mL Leupeptin, 1 μg/mL Pepstatin A, 1 mM Na3VO4), 25 mM β-glycerophosphate, and phosphatase inhibitor cocktail II (SIGMA)) were added and homogenized. Treatment at 15,000 rpm and 4° C. for 15 minutes and addition of SDS buffer to the supernatant were followed by treatment at 94° C. for 5 minutes to solubilize protein to 20 μg/10 μL to prepare cell extract. The cell extract was subjected to electrophoresis and immunoblotting in the same manner as in Example 2.

The test system of assay [5] is human medullary thyroid carcinoma cell line (TT). Nature of the assay: Cell growth of human medullary thyroid carcinoma cell line (TT). The conditions noted are these: 240 h, TT cells, 10 days culture, read-out: inhibitory activity against cell growth (IC50). The assay is classed as cell-based. Here is the method:
Human medullary thyroid carcinoma cell line (TT, purchased from ATCC) was suspended in RPMI1640 medium containing 15% FBS (purchased from Sigma). 0.1 mL per well of this cell suspension (3×10^4 cells/mL) was added to 96-well cell culture plate (purchased from NUNC), and cultured in a 5% CO2 incubator (37° C.) overnight. […] After cultivation, 10 μL of […] (purchased from DOJINDO) was added to each well, treated in 5% CO2 incubator (37° C.) for color development and absorbance of each well was determined with plate reader MTP-500 (Corona Electric) at measurement wavelength of 415 nm and reference wavelength of 660 nm. Percentage (%) of the absorbance of each well with the test substance was determined compared to the absorbance of well without the test substance, based on which concentration of the test substance required for inhibiting cell growth for 50% (IC50) was calculated.

A further assay deals with Erk1/2. Nature of the assay: Erk1/2 phosphorylation in human medullary thyroid carcinoma cell line (TT), western blotting. The assay is classed as cell-based. The conditions noted are these: TT cells, 1 hour treatment. The procedure: Human medullary thyroid carcinoma cell line (TT, purchased from ATCC) was suspended in RPMI1640 medium containing 15% FBS (purchased from Sigma). TT is a cell expressing RET where cysteine at codon 634 in the wild-type RET amino acid sequence is mutated with tryptophan (Biochemical and Biophysical Research Communications, 207, 1022-1028, 1995). Two mL of this cell suspension per well (4×10^5 cells/mL) was added to 6-well cell culture plate (purchased from FALCON), and cultured in a 5% CO2 incubator (37° C.) overnight. After cultivation, supernatant was removed from each well and 1.8 mL of RPMI1640 medium containing 15% FBS was added. […] Supernatant was removed from each well, which was then washed with 400 μL of PBS, and added with 100 μL of solubilizing buffer (50 mM Hepes (pH7.4), 150 mM NaCl, 10% (v/v) glycerol, 1% Triton X-100, 1.5 mM MgCl2, 1 mM EDTA (pH 8.0), 100 mM NaF, 1 mM PMSF, 10 μg/mL, Aprotinin, 50 μg/mL Leupeptin, 1 μg/mL Pepstatin A and 1 mM Na3VO4). Cells in this solution were harvested with a scraper and treated at 15,000 rpm and 4° C. for 15 minutes. SDS buffer was added to the supernatant and subjected to treatment at 94° C. for 5 minutes to solubilize the protein, which was then prepared to 20 μg/10 μL as a cell extract. […]

pIC50: −log10 of the molar value.

T1 sequence (P07949 29-1114 C634W): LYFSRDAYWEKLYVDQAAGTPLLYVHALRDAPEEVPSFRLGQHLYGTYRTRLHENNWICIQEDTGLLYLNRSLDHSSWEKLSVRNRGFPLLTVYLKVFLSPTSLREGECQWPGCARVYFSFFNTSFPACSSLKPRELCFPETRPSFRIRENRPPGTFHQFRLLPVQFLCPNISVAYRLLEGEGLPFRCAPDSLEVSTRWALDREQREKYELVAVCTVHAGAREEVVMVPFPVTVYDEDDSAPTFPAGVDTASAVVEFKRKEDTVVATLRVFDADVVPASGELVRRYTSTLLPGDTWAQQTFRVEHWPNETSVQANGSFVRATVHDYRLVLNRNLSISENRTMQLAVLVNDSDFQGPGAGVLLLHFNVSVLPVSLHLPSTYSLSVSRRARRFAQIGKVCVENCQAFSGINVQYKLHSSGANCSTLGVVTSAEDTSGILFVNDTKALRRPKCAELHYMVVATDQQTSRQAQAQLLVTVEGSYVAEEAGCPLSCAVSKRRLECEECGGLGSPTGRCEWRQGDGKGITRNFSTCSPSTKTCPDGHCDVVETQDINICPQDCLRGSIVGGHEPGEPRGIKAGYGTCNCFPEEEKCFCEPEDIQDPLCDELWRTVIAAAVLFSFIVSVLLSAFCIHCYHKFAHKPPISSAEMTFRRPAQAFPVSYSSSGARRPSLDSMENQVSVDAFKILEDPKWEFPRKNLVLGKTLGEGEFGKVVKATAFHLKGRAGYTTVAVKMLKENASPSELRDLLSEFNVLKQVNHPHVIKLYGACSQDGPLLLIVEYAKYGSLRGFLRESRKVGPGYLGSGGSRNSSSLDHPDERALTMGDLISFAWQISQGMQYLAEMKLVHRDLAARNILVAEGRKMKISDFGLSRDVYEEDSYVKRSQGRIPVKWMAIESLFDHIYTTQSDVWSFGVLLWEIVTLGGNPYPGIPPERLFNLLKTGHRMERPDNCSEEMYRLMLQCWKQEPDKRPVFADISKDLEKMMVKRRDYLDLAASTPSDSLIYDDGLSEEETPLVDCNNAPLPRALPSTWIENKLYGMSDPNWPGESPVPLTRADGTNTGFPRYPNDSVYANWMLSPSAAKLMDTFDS

`CNC(=O)c1cc(Oc2ccc(NC(=O)Nc3ccc(Cl)c(C(F)(F)F)c3)cc2)ccn1` [BAY 43-9006]: in assay [1], the size of tumor entry is reported as “reduce the size of tumor”.
In the case of `COc1cc2c(Nc3ccc(Br)cc3F)ncnc2cc1OCC1CCN(C)CC1` [ZD6474], the scaffold-independent proliferation entry in assay [2] is recorded as “suppress scaffold-independent proliferation”. Besides, the tumor formation result in assay [3] is listed as “inhibited tumor formation”.
For the molecule `COc1cc2nccc(Oc3ccc(NC(=O)NC4CC4)c(Cl)c3)c2cc1C(N)=O` [4-(3-chloro-4-(cyclopropylaminocarbonyl)aminophenoxy)-7-methoxy-6-quinolinecarboxamide], the “antitumor effect (tumor volume)” value in assay [4] is “dose-dependent antitumor effect”. Further, the “RET autophosphorylation inhibitory activity in tumor” value at RET was “RET autophosphorylation inhibitory activity at the dose found to exert antitumor effect”. Also, the pIC50 in assay [5] was 7.11. Further, the “inhibition of Erk1/2 phosphorylation” value in the assay on Erk1/2 is “at a concentration similar to that for RET kinase”.
